{"source": "patent US20230041563A1", "about": "“N-(1,3,4-OXADIAZOL-2-YL)ARYLCARBOXAMIDES OR SALTS THEREOF, PREPARATION METHODS, HERBICIDAL COMPOSITIONS AND USES THEREOF” (priority 2018, published 2023)", "key": {"[1]": {"system": "Abutilon theophrasti", "test": "Weeding effect in post-emergence stage (greenhouse pot spray)", "type": "in vivo", "in_short": "(§1)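 Greenhouse pot plants at the 2–3 leaf stage (2 weeks after sowing) were sprayed with compound in acetone with Tween 80 and methyl oleate EC synergist (1.5 L/ha) at 500, 250, 125, 60 or 15 g a.i./ha. Fresh-weight growth control was scored 3 weeks later, averaged over three replicates.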"}, "[2]": {"system": "Digitaria sanguinalis", "test": "Weeding effect in post-emergence stage (greenhouse pot spray)", "type": "in vivo", "in_short": "as §1"}, "[3]": {"system": "Echinochloa crusgalli", "test": "Weeding effect in post-emergence stage (greenhouse pot spray)", "type": "in vivo", "in_short": "as §1"}, "[4]": {"system": "Setaria viridis", "test": "Weeding effect in post-emergence stage (greenhouse pot spray)", "type": "in vivo", "details": "Table 3, dose 60 g a.i./ha", "in_short": "as §1"}, "[5]": {"system": "Amaranthus retroflexus", "test": "Weeding effect in post-emergence stage (greenhouse pot spray)", "type": "in vivo", "in_short": "as §1"}, "[6]": {"system": "Stellaria media", "test": "Weeding effect in post-emergence stage (greenhouse pot spray)", "type": "in vivo", "in_short": "as §1"}, "[7]": {"system": "Monochoria vaginalis", "test": "Transplanted rice safety evaluation and weed control effect evaluation in rice field", "type": "in vivo", "details": "Table 7, dose 125 g a.i./ha, 14 days after treatment", "in_short": "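Paddy-soil pots, seeds sown and flooded (0.5-1 cm, then 3-4 cm water); Sagittaria grown from tubers. WP or SC dilutions dripped on at 0.5-leaf stage (Sagittaria at primary leaf). Visual 0-5 scoring of weeds at 14 days, rice at 21 days.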"}, "[8]": {"system": "Rice", "test": "Transplanted rice safety evaluation and weed control effect evaluation in rice field", "type": "in vivo, rice (japonica rice/Indica rice)", "details": "Table 7, dose 125 g a.i./ha, 21 days after treatment", "in_short": "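Japonica and Indica rice at 3-leaf stage transplanted into flooded paddy soil (3-4 cm water). Compound applied 5 days after transplanting. Weeds scored visually on 0-5 scale at 14 days; rice injury at 21 days.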"}, "[9]": {"system": "weeds", "test": "Actual control effects and combined effects of mixtures of active ingredients (i) and (ii), stem-leaf treatment, Gowing method", "type": "in vivo", "details": "20 days"}}, "data": [{"smiles": "CCSc1c(C(F)(F)F)ccc(C(=O)Nc2nnc(C)o2)c1F", "note": "[Compound 1-4]", "values": [{"measurement": "Abutilion theophrasti (activity level)", "setting": "[1]; Table 2, dose 125 g a.i./ha", "value": "5 (Level 5: growth control rate is above 85%)"}, {"measurement": "Abutilion theophrasti (activity level)", "setting": "[1]; Table 2, dose 250 g a.i./ha", "value": "5 (Level 5: growth control rate is above 85%)"}, {"measurement": "Abutilon theophrasti (activity level)", "setting": "[1]; Table 3, dose 60 g a.i./ha", "value": "5 (Level 5: growth control rate is above 85%)"}, {"measurement": "Digitaria sanguinalis (activity level)", "setting": "[2]; Table 2, dose 125 g a.i./ha", "value": "5 (Level 5: growth control rate is above 85%)"}, {"measurement": "Digitaria sanguinalis (activity level)", "setting": "[2]; Table 2, dose 250 g a.i./ha", "value": "5 (Level 5: growth control rate is above 85%)"}, {"measurement": "Digitaria sanguinahs (activity level)", "setting": "[2]; Table 3, dose 60 g a.i./ha", "value": "5 (Level 5: growth control rate is above 85%)"}, {"measurement": "Echinochloa crusgah (activity level)", "setting": "[3]; Table 2, dose 125 g a.i./ha", "value": "5 (Level 5: growth control rate is above 85%)"}, {"measurement": "Echinochloa crusgah (activity level)", "setting": "[3]; Table 2, dose 250 g a.i./ha", "value": "5 (Level 5: growth control rate is above 85%)"}, {"measurement": "Setaria viridis (activity level)", "setting": "[4]", "value": "5 (Level 5: growth control rate is above 85%)"}, {"measurement": "Amaranthus retroflexus (activity level)", "setting": "[5]; Table 2, dose 125 g a.i./ha", "value": "5 (Level 5: growth control rate is above 85%)"}, {"measurement": "Amaranthus retroflexus (activity level)", "setting": "[5]; Table 2, dose 250 g a.i./ha", "value": "5 (Level 5: growth control rate is above 85%)"}, {"measurement": "Stellaria media (activity level)", "setting": "[6]; Table 2, dose 125 g a.i./ha", "value": "5 (Level 5: growth control rate is above 85%)"}, {"measurement": "Stellaria media (activity level)", "setting": "[6]; Table 2, dose 250 g a.i./ha", "value": "5 (Level 5: growth control rate is above 85%)"}, {"measurement": "Monochoria vaginalis (activity level)", "setting": "[7]", "value": "5 (Level 5: growth control rate is above 85%)"}, {"measurement": "Rice (safety level)", "setting": "[8]", "value": "0 (Level 0: growth control rate is less than 5%)"}, {"measurement": "Control effect of (i) alone at corresponding dose", "setting": "[9]; Cyperus difformis, (i) 0.3 g a.i./mu", "value": 4.1, "unit": "%"}, {"measurement": "Control effect of (i) alone at corresponding dose", "setting": "[9]; Cyperus difformis, (i) 1 g a.i./mu", "value": 6.3, "unit": "%"}, {"measurement": "Control effect of (i) alone at corresponding dose", "setting": "[9]; Cyperus difformis, (i) 1.5 g a.i./mu", "value": 9.2, "unit": "%"}, {"measurement": "Control effect of (i) alone at corresponding dose", "setting": "[9]; Cyperus difformis, (i) 3 g a.i./mu", "value": 15.2, "unit": "%"}, {"measurement": "Control effect of (i) alone at corresponding dose", "setting": "[9]; Cyperus difformis, (i) 6 g a.i./mu", "value": 25.6, "unit": "%"}, {"measurement": "Control effect of (i) alone at corresponding dose", "setting": "[9]; Cyperus difformis, (i) 9 g a.i./mu", "value": 32.1, "unit": "%"}, {"measurement": "Control effect of (i) alone at corresponding dose", "setting": "[9]; Echinochloa phyllopogon, (i) 0.6 g a.i./mu", "value": 20.5, "unit": "%"}, {"measurement": "Control effect of (i) alone at corresponding dose", "setting": "[9]; Echinochloa phyllopogon, (i) 0.7 g a.i./mu", "value": 25.1, "unit": "%"}, {"measurement": "Control effect of (i) alone at corresponding dose", "setting": "[9]; Echinochloa phyllopogon, (i) 0.75 g a.i./mu", "value": 30.3, "unit": "%"}, {"measurement": "Control effect of (i) alone at corresponding dose", "setting": "[9]; Echinochloa phyllopogon, (i) 1 g a.i./mu", "value": 36.6, "unit": "%"}, {"measurement": "Control effect of (i) alone at corresponding dose", "setting": "[9]; Echinochloa phyllopogon, (i) 1.5 g a.i./mu", "value": 41.5, "unit": "%"}, {"measurement": "Control effect of (i) alone at corresponding dose", "setting": "[9]; Echinochloa phyllopogon, (i) 1.6 g a.i./mu", "value": 45.3, "unit": "%"}, {"measurement": "Control effect of (i) alone at corresponding dose", "setting": "[9]; Echinochloa phyllopogon, (i) 3 g a.i./mu", "value": 60.2, "unit": "%"}, {"measurement": "Control effect of (i) alone at corresponding dose", "setting": "[9]; Leptochloa chinensis, (i) 3 g a.i./mu", "value": 18.6, "unit": "%"}, {"measurement": "Control effect of (i) alone at corresponding dose", "setting": "[9]; Leptochloa chinensis, (i) 15 g a.i./mu", "value": 45.6, "unit": "%"}, {"measurement": "Control effect of (i) alone at corresponding dose", "setting": "[9]; Monochoria vaginalis, (i) 0.8 g a.i./mu", "value": 5.8, "unit": "%"}, {"measurement": "Control effect of (i) alone at corresponding dose", "setting": "[9]; Monochoria vaginalis, (i) 1 g a.i./mu", "value": 6.2, "unit": "%"}, {"measurement": "Control effect of (i) alone at corresponding dose", "setting": "[9]; Monochoria vaginalis, (i) 1.8 g a.i./mu", "value": 8.6, "unit": "%"}, {"measurement": "Control effect of (i) alone at corresponding dose", "setting": "[9]; Monochoria vaginalis, (i) 2.4 g a.i./mu", "value": 10.2, "unit": "%"}, {"measurement": "Control effect of (i) alone at corresponding dose", "setting": "[9]; Monochoria vaginalis, (i) 3 g a.i./mu", "value": 12.7, "unit": "%"}, {"measurement": "Control effect of (i) alone at corresponding dose", "setting": "[9]; Monochoria vaginalis, (i) 3.5 g a.i./mu", "value": 13.3, "unit": "%"}, {"measurement": "Control effect of (i) alone at corresponding dose", "setting": "[9]; Monochoria vaginalis, (i) 5 g a.i./mu", "value": 19.6, "unit": "%"}, {"measurement": "Control effect of (i) alone at corresponding dose", "setting": "[9]; Monochoria vaginalis, (i) 6 g a.i./mu", "value": 28.6, "unit": "%"}, {"measurement": "Control effect of (i) alone at corresponding dose", "setting": "[9]; Monochoria vaginalis, (i) 10 g a.i./mu", "value": 31.7, "unit": "%"}, {"measurement": "Control effect of (i) alone at corresponding dose", "setting": "[9]; Monochoria vaginalis, (i) 15 g a.i./mu", "value": 40.5, "unit": "%"}, {"measurement": "Control effect of (i) alone at corresponding dose", "setting": "[9]; Sagittaria trifolia L., (i) 0.75 g a.i./mu", "value": 16.3, "unit": "%"}, {"measurement": "Control effect of (i) alone at corresponding dose", "setting": "[9]; Sagittaria trifolia L., (i) 3 g a.i./mu", "value": 60.3, "unit": "%"}]}]}
